For this experiment, the target named is T1, APOL1 G1 (Homo sapiens, UniProt O14791, I384M/S342G).
T1 sequence (O14791 28-398 S342G/I384M): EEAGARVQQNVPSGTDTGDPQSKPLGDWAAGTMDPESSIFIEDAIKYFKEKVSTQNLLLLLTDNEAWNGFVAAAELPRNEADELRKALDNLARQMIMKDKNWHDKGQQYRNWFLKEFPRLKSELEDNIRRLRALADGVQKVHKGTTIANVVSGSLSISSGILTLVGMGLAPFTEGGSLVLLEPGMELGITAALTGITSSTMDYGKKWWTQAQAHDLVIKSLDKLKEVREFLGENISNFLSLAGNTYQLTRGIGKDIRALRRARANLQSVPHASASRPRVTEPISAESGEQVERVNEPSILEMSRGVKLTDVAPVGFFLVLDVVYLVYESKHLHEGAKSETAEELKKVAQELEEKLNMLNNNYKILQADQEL
The experiment is described as follows: MultiTox-Fluor Multiplex Cytotoxicity Assay, tet-inducible APOL1 G1 T-REx-HEK293 cells. The class given is cell-based. The arrangement: expressed in transfected cells; host or cells: T-REx HEK293, clone G1 DC3.25 (pAAVS1-Puro-APOL1 G1). Particulars: for Emax: read-out: Multi-Tox Assay Max Activity (%); for IC50: IP50 = IC50 for cell proliferation. The essentials: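 T-REx-HEK293 cells carrying tet-inducible APOL1 G1 induced with 50 ng/mL tet alongside compound (top 10 µM, 10-point 3-fold, duplicate) for 24 h at 37 °C. MultiTox-Fluor dead/live protease fluorescence ratio read after 30 min; normalized to no-tet (100% viability) and tet-treated (0%) controls, then curve-fitted.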

Where [1] appears, read: HEK293, Multi-Tox Assay, APOL1 variant (G0/G1/G2) of the HEK293 cells not given, read-out: Multi-Tox Assay IC90.
[2] abbreviates: Multi-Tox Assay, APOL1 variant not given.
Where [3] appears, read: Multi-Tox Assay, APOL1 variant (G0/G1/G2) not stated in Table 46, read-out: Multi-Tox Assay IC90.
Where [4] appears, read: Multi-Tox Assay, APOL1 variant not stated in Table 46.

Structures are written as SMILES. Where two headings read alike, the source gives them in different places. Some results are limits rather than exact numbers.

A word on the IC90: it is the point of the concentration-response curve where the effect stands at 90%. For `COc1cccc([C@@H]2C[C@]3(C[C@H](C)N2)OCCc2cc(Cl)sc23)c1O` (racemic) [Compound 166], the IC90 under setting [1] was above 500 nM. Besides, the “Multi-Tox Assay Max Activity (%)” value under setting [2] is recorded as 96.7%. As to `CC1CC2(CC(c3ccncc3)N1)OCCc1cc(Cl)sc12` (stereo not shown) [Compound 30], the 90% effect concentration (IC90) under setting [1] was below 50 nM.

For `C[C@H]1C[C@@]2(C[C@@H](c3cn(Cc4ccccc4S(C)(=O)=O)nn3)N1)OC[C@@H](O)c1cc(Cl)sc12` [Compound 231], the IC90 under setting [1] is 50 to 500 nM. Besides, under setting [2], the “Multi-Tox Assay Max Activity (%)” value was 95.0%. Taken in the same sequence, the figures for `C[C@H]1C[C@@]2(C[C@@H](c3cn(CC4CCC(=O)NC4)nn3)N1)OC[C@@H](O)c1cc(Cl)sc12` (stereo partly shown) [Compound 254] were above 500 nM and 92.0%.

For `C[C@H]1C[C@@]2(C[C@@H](c3cc(C4CCOCC4)[nH]n3)N1)OCCc1cc(Cl)sc12` [Compound 114], the concentration for an effect of 90% (IC90) under setting [1] was in the range of 50 to 500 nM. In addition, under setting [2], the “Multi-Tox Assay Max Activity (%)” value is reported as 99.7%. As for `C[C@H]1C[C@@]2(C[C@@H](c3cn(CCOc4ccccc4F)nn3)N1)OCC(F)(F)c1cc(Cl)sc12` [Compound 354], the IC90 under setting [1] fell in the range of 50 to 500 nM. Turning to `C[C@H]1C[C@@]2(C[C@@H](c3cn4c(n3)COCC4)N1)OCCc1cc(Cl)sc12` (racemic) [Compound 74], the 90% effect concentration (IC90) under setting [1] was below 50 nM. Further, the Emax under setting [2] was 99.2%.

As for `C[C@H]1C[C@@]2(C[C@@H](c3cn(CCC4CCCOC4)nn3)N1)OC[C@@H](O)c1cc(Cl)sc12` (stereo partly shown) [Compound 273], under setting [1], the IC90 lay in the range of 50 to 500 nM. Also, under setting [2], the “Multi-Tox Assay Max Activity (%)” value came out at 101.0%.

As to `Cc1cccc(OCC(O)Cn2cc([C@@H]3C[C@]4(C[C@H](C)N3)OC[C@@H](O)c3cc(Cl)sc34)nn2)c1` (stereo partly shown) [Compound 260], under setting [1], the IC90 is 50 to 500 nM. A word on the IC50: it is the concentration that gives 50% inhibition. Low values mean greater potency in that assay, high ones weaker potency in that assay. Regarding `C[C@H]1C[C@@]2(C[C@@H](c3cn(CC(C)(C)O)nn3)N1)OCC(F)(F)c1cc(Cl)sc12` [Compound 364], the 90% effect concentration (IC90) under setting [3] was above 500 nM. For the same molecule, under setting [4], the “Multi-Tox Assay Max Activity (%)” value is reported as 95.0% and the half-inhibitory concentration (IC50) lay within 50 to 500 nM. In the case of `Cc1nc(Cn2cc([C@@H]3C[C@]4(C[C@H](C)N3)OC[C@@H](O)c3cc(Cl)sc34)nn2)oc1C` [Compound 297], the concentration for an effect of 90% (IC90) under setting [1] is 50 to 500 nM.

With `C[C@H]1C[C@@]2(C[C@@H](c3cn(CC4CCC(=O)NC4)nn3)N1)OCC(F)(F)c1cc(Cl)sc12` (stereo partly shown) [Compound 368], under setting [3], the IC90 was above 500 nM. In addition, under setting [4], the “Multi-Tox Assay Max Activity (%)” value is listed as 96.0% and the IC50 lay within 50 to 500 nM.

Take `Cc1cc(C2CC3(CC(C)N2)OCCc2cc(Cl)sc23)ncn1` (stereo not shown) [Compound 43]: the IC90 under setting [1] is below 50 nM. In addition, the “Multi-Tox Assay Max Activity (%)” value under setting [2] is reported as 100.0%. On to `COc1cc(O)cc([C@@H]2C[C@]3(C[C@H](C)N2)OCCc2cc(Cl)sc23)c1` (racemic) [Compound 137], for which the IC90 under setting [1] fell in the range of 50 to 500 nM. Also, the “Multi-Tox Assay Max Activity (%)” value under setting [2] is reported as 98.7%. For the molecule `C[C@H]1C[C@@]2(C[C@@H](c3cn(C)nn3)N1)OC[C@@H](O)c1cc(C(F)(F)F)sc12` [Compound 181, (2S,4S,4'S,6S)-2-methyl-6-(1-methyl-1H-1,2,3-triazol-4-yl)-2'-(trifluoromethyl)-4',5'-dihydrospiro[piperidine-4, 7'-thieno[2,3-c]pyran]-4'-ol], the IC90 under setting [1] was below 50 nM. Further, under setting [2], the Emax came to 99.8%. On to `Cc1ccc([C@@H]2C[C@]3(C[C@H](C)N2)OCCc2cc(Cl)sc23)nn1` (racemic) [Compound 58], for which, under setting [1], the IC90 is below 50 nM. The “Multi-Tox Assay Max Activity (%)” value under setting [2] was determined as 99.7%.

`Cc1ccc(Cn2cc([C@@H]3C[C@]4(C[C@H](C)N3)OCC(F)(F)c3cc(Cl)sc34)nn2)nc1` [Compound 334]: the IC90 under setting [1] was above 500 nM. The “Multi-Tox Assay Max Activity (%)” value under setting [2] was 96.0%. In the same order, the values of `C[C@H]1C[C@@]2(C[C@@H](c3cnccn3)N1)OCCc1cc(Cl)sc12` (racemic) [Compound 101] are below 50 nM and 100.0%. For the molecule `C[C@H]1C[C@@]2(C[C@@H](c3cn(Cc4nc5ncccc5[nH]4)nn3)N1)OCC(F)(F)c1cc(Cl)sc12` [Compound 346], the IC90 under setting [1] lay within 50 to 500 nM. Take `CC1CC2(CC(c3cc(F)cc(C#N)c3)N1)OCCc1cc(Cl)sc12` (stereo not shown) [Compound 33]: the concentration for an effect of 90% (IC90) under setting [1] was below 50 nM. Further, the “Multi-Tox Assay Max Activity (%)” value under setting [2] was 98.7%.

`COc1ccc([C@@H]2C[C@]3(C[C@H](C)N2)OCCc2cc(Cl)sc23)cc1O` (racemic) [Compound 99]: under setting [1], the 90% effect concentration (IC90) is below 50 nM. For the molecule `C[C@H]1C[C@@]2(C[C@@H](c3cn(Cc4ccc(C#N)cc4)nn3)N1)OC[C@@H](O)c1cc(Cl)sc12` [Compound 253], the IC90 under setting [1] lay within 50 to 500 nM. Under setting [2], the “Multi-Tox Assay Max Activity (%)” value came to 100.0%. Take `C[C@@H]1C[C@]2(C[C@H](C)N1)OCC(O)c1cc(Cl)sc12` (mixture of isomers) [Compound 205, (2R,6S)-2-chloro-2',6'-dimethyl-spiro[4,5-dihydrothieno[2,3-c]pyran-7,4'-piperidine]-4-ol]: the Emax turned out to be 99.3%. Moreover, under “HEK293, read-out: Multi-Tox Assay IC90 (nM)”, the concentration for an effect of 90% (IC90) fell in the range of 50 to 500 nM. As to `C[C@H]1C[C@@]2(C[C@@H](c3cnn(C4CCOCC4)c3)N1)OCCc1cc(Cl)sc12` (racemic) [Compound 100], the IC90 under setting [1] was below 50 nM. Moreover, the “Multi-Tox Assay Max Activity (%)” value under setting [2] was found to be 99.3%.

`Cn1cc(C2CC3(CC(C4CCC4)N2)OCCc2cc(C(F)(F)F)sc23)nn1` (stereo not shown) [Compound 192]: the IC90 under setting [1] is 50 to 500 nM. Under setting [2], the Emax stood at 99%. In the case of `COc1ccc([C@@H]2C[C@]3(C[C@H](C)N2)OCCc2cc(Cl)sc23)c(F)c1` (racemic) [Compound 44], the IC90 under setting [1] was below 50 nM. For the same molecule, the “Multi-Tox Assay Max Activity (%)” value under setting [2] came out at 99.5%.

For the molecule `CNc1ncc([C@@H]2C[C@]3(C[C@H](C)N2)OCCc2cc(Cl)sc23)cn1` (racemic) [Compound 60], the concentration for an effect of 90% (IC90) under setting [1] was below 50 nM. In addition, the “Multi-Tox Assay Max Activity (%)” value under setting [2] was 99.7%. As to `C[C@H]1C[C@@]2(C[C@@H](c3cn(C)nn3)N1)OC[C@H](O)c1cc(C(F)(F)F)sc12` [Compound 180], the IC90 under setting [1] was below 50 nM. Further, the Emax under setting [2] is 99.8%. Consider `C[C@H]1C[C@@]2(C[C@@H](c3cn(CCO)nn3)N1)OC[C@@H](O)c1cc(Cl)sc12` [Compound 244], for which the IC90 under setting [1] was in the range of 50 to 500 nM. Further, under setting [2], the “Multi-Tox Assay Max Activity (%)” value is on record as 100.0%. In the case of `C[C@H]1C[C@@]2(C[C@@H](c3cn(Cc4ccc(CO)cc4)nn3)N1)OCC(F)(F)c1cc(Cl)sc12` [Compound 225, (4-((4-((2S,4S,6S)-2'-chloro-4',4'-difluoro-2-methyl-4',5'-dihydrospiro[piperidine-4,7'-thieno[2,3-c]pyran]-6-yl)-1H-1,2,3-triazol-1-yl)methyl)phenyl)methanol], under setting [1], the concentration for an effect of 90% (IC90) lay within 50 to 500 nM. For the same molecule, under setting [2], the “Multi-Tox Assay Max Activity (%)” value is recorded as 97.0%. For the molecule `C[C@H]1C[C@@]2(C[C@@H](c3cn(C)nn3)N1)OCC(F)(F)c1cc(Cl)sc12` [Compound 183, (2'S, 6'S, 7S)-2-chloro-4,4-difluoro-2'-methyl-6'-(1-methyltriazol-4-yl)spiro[5H-thieno[2,3-c]pyran-7,4'-piperidine]], under setting [1], the concentration for an effect of 90% (IC90) is below 50 nM. In addition, under setting [2], the Emax turned out to be 99.5%. As for `Cc1ccccc1C(O)Cn1cc([C@@H]2C[C@]3(C[C@H](C)N2)OCC(F)(F)c2cc(Cl)sc23)nn1` (stereo partly shown) [Compound 304], the IC90 under setting [1] lay within 50 to 500 nM.

On to `C[C@H]1C[C@@]2(C[C@@H](c3cnn(C)c3)N1)OCCc1cc(Cl)sc12` [Compound 19, (2S)-2-chloro-2'-methyl-6'-(1-methylpyrazol-4-yl)spiro[4,5-dihydrothieno[2,3-c]pyran-7,4'-piperidine]], for which, under setting [1], the IC90 is below 50 nM. In addition, under setting [2], the Emax turned out to be 99.3%.

For the molecule `Cc1cnc([C@@H]2C[C@]3(C[C@H](C)N2)OCCc2cc(Cl)sc23)o1` (racemic) [Compound 134], the 90% effect concentration (IC90) under setting [1] lay in the range of 50 to 500 nM. For the same molecule, the “Multi-Tox Assay Max Activity (%)” value under setting [2] is 99.2%.

Consider `Cn1cc([C@@H]2C[C@]3(C[C@H](C4CC4)N2)OCCc2cc(C(F)(F)F)sc23)nn1` [Compound 383, (2'R,6'S,7S)-2'-cyclopropyl-6'-(1-methyltriazol-4-yl)-2-(trifluoromethyl)spiro[4,5-dihydrothieno[2,3-c]pyran-7,4'-piperidine]], for which, under setting [3], the IC90 is below 50 nM. Further, the Emax under setting [4] is 100%. As to `C[C@H]1C[C@@]2(C[C@@H](c3cn(CCCS(C)(=O)=O)nn3)N1)OCC(F)(F)c1cc(Cl)sc12` [Compound 344], the IC90 under setting [1] fell in the range of 50 to 500 nM. Still for that read-out and setting: the same measure for `Cc1n[nH]c2ncc([C@@H]3C[C@]4(C[C@H](C)N3)OCCc3cc(Cl)sc34)cc12` (racemic) [Compound 48]: below 50 nM.
